According to ChEMBL document CHEMBL2069167, “Synthesis and structure-activity relationship of (1-halo-2-naphthyl) carbamate-based inhibitors of KIAA1363 (NCEH1/AADACL1)” (Bioorg Med Chem Lett, 2012):

What was measured:
[1] = biological target: T1, Neutral cholesterol ester hydrolase 1 (Homo sapiens, UniProt Q6PIU2); assay: Inhibition of human KIAA1363 expressed in 293T/17 cells using 2-thioacetyl MAGE as substrate preincubated for 20 mins measured after 1 hr; assay type: cell-based
T1 sequence (Q6PIU2 whole entry): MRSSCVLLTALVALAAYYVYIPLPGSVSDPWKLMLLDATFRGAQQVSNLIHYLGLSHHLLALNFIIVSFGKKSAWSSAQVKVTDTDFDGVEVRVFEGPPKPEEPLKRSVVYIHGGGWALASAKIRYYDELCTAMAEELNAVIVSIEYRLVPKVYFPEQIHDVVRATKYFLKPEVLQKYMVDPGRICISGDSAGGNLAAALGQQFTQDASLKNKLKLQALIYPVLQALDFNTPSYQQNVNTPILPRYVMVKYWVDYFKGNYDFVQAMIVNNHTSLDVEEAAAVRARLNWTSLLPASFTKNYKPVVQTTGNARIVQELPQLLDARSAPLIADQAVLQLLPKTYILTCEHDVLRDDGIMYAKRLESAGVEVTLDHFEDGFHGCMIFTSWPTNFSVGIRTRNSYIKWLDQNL

Mus musculus [2] = assay: Inhibition of KIAA1363 in tumor of SCID mouse xenografted with human SK-OV-3 cells at 100 mg/kg, po after 2 hrs by fluorescence assay; assay type: functional; conditions: SK-OV-3, 2 h
Mus musculus [3] = assay: Inhibition of KIAA1363 in tumor of SCID mouse xenografted with human SK-OV-3 cells at 100 mg/kg, ip after 2 hrs by fluorescence assay; assay type: functional; conditions: SK-OV-3, ip, route intraperitoneal
Mus musculus [4] = assay: Inhibition of KIAA1363 in heart of SCID mouse at 100 mg/kg, ip after 2 hrs by fluorescence assay; assay type: functional; conditions: route intraperitoneal

CN(C)C(=O)Oc1ccc2ccccc2c1Cl
IC50 [1]: 1.1 µM

CN(C)C(=O)Oc1ccccc1Br
IC50 [1]: > 100 µM

CCCc1ccc2c(Br)c(OC(=O)N(C)C)ccc2c1
inhibition in vivo at 100 mg/kg (Mus musculus [2]): 22% | inhibition in vivo at 100 mg/kg (Mus musculus [3]): 64% | inhibition in vivo at 100 mg/kg (Mus musculus [4]): 66%

CN(C)C(=O)Oc1ccc2ccccc2c1C#N
IC50 [1]: > 100 µM

CN(C)C(=O)Oc1ccc2cc(C#N)ccc2c1Br
inhibition in vivo at 100 mg/kg (Mus musculus [2]): 14%

CN(C)C(=O)Oc1ccc2cc(Br)ccc2c1Br
inhibition in vivo at 100 mg/kg (Mus musculus [2]): 18%

CN(C)C(=O)Oc1ccc2ccccc2c1 [NAPHTHALEN-2-YL DIMETHYLCARBAMATE]
IC50 [1]: > 100 µM
